In US20130217702A1 (Richter Gedeon Nyrt., priority 2010, published 2013):

How the values were obtained:
[1] = biological target: T1, recombinant human B1 receptors (Homo sapiens, UniProt P46663); assay: Functional assay: antagonist potency by cytosolic calcium measurement (plate reader fluorimeter) in CHO-B1 cells, agonist LysDABK; format: cell-based; details: CHO-B1 cells, inhibition of LysDABK (EC80)-evoked [Ca2+]i elevation; read-out: B1 func.
T1 construct: host or cells: CHO (CHO-B1)
T1 sequence (P46663 1-353): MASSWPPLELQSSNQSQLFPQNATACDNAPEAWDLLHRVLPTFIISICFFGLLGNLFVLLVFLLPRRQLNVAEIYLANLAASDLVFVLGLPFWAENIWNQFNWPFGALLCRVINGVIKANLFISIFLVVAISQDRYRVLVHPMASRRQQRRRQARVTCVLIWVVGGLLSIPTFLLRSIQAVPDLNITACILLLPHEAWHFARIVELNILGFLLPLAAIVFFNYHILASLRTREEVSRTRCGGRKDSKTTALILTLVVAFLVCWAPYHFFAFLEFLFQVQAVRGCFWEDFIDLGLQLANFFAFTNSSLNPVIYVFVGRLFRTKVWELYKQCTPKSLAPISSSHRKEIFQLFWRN
How it was run: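 IC50 is the concentration giving half-maximal inhibition of the LysDABK (EC80) calcium response, fitted from at least three experiments. CHO cells stably expressing human B1 were dye-loaded, exposed to compound for 20-25 min, then read by fluo-4 fluorescence (ΔF/F) at 37 °C.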

[2] = biological target: T2, human recombinant bradykinin B1 receptor (Homo sapiens, UniProt P46663); assay: Human recombinant bradykinin B1 receptor competitive radioligand binding; details: hB1 expressed in CHO cells, [3H]-[Des-Arg10] Kallidin radioligand; read-out: B1 binding
T2 construct: host or cells: CHO cells, clone hB1-A5
T2 sequence (P46663 1-353): T1 sequence (P46663 1-353)
How it was run: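 Membranes from CHO cells expressing hB1 (20 μg protein/tube) incubated 15 min at 25° C. with [3,4-prolyl-3,4-^3H(N)]-[Des-Arg^10] Kallidin; nonspecific binding defined with 10 μM Lys-des-Arg^9-Bradykinin. Bound label collected by filtration and counted. IC50 from ≥7-point curves in triplicate; Ki by Cheng-Prusoff.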

Row | SMILES | IC50 [1] | Ki [2]
1 | Cc1nc(-c2c(Cl)c3cc(Cl)ccc3n2-c2ccc(CNC(=O)C3(NC(=O)c4cc(C5CC5)on4)CC3)cc2)no1 [Example 75, 5-Cyclopropyl-isoxazole-3-carboxylic acid (1-{4-[3,5-dichloro-2-(5-methyl-[1,2,4]oxadiazol-3-yl)-indol-1-yl]-benzylcarbamoyl}-cyclopropyl)-amide] | < 0.02 µM | < 0.02 µM
2 | Cc1nc(-c2c(Cl)c3cc(Cl)ccc3n2-c2ccc(CNC(=O)C3(NC(=O)c4cncc(C(F)(F)F)c4)CC3)cc2)no1 [Example 76, N-(1-{4-[3,5-Dichloro-2-(5-methyl-[1,2,4]oxadiazol-3-yl)-indol-1-yl]-benzylcarbamoyl}-cyclopropyl)-5-trifluoromethyl-nicotinamide] | < 0.02 µM | < 0.02 µM
3 | CSc1ncc(C(=O)NC2(C(=O)NCc3ccc(-n4c(-c5noc(C)n5)c(Cl)c5ccccc54)cc3)CC2)cn1 [Example 77, 2-Methylsulfanyl-pyrimidine-5-carboxylic acid (1-{4-[3-chloro-2-(5-methyl-[1,2,4]oxadiazol-3-yl)-indol-1-yl]-benzylcarbamoyl}-cyclopropyl)-amide] | < 0.02 µM | < 0.02 µM
4 | COc1ccc2c(c1)cc(-c1nc(C)no1)n2-c1ccc(CNC(=O)C2(NC(=O)CC(F)(F)F)CC2)cc1 [Example 78, 1-(3,3,3-Trifluoro-propionylamino)-cyclopropanecarboxylic acid 4-[5-methoxy-2-(3-methyl-[1,2,4]oxadiazol-5-yl)-indol-1-yl]-benzylamide] | < 0.02 µM | < 0.02 µM
5 | COc1ccc2c(c1)cc(-c1nc(C)no1)n2-c1ccc(CNC(=O)C2(NC(=O)c3cncc(C(F)(F)F)c3)CC2)cc1 [Example 79, N-(1-{4-[5-Methoxy-2-(3-methyl-[1,2,4]oxadiazol-5-yl)-indol-1-yl]-benzylcarbamoyl}-cyclopropyl)-5-trifluoromethyl-nicotinamide] | < 0.02 µM | < 0.02 µM
6 | COc1ccc2c(c1)cc(-c1nc(C)no1)n2-c1ccc(CNC(=O)C2(NC(=O)c3cc(OC)no3)CC2)cc1 [Example 80, 3-Methoxy-isoxazole-5-carboxylic acid (1-{4-[5-methoxy-2-(3-methyl-[1,2,4]oxadiazol-5-yl)-indol-1-yl]-benzylcarbamoyl}-cyclopropyl)-amide] | < 0.02 µM | < 0.02 µM
7 | Cc1nc(-c2cc3ccccc3n2-c2ccc(CNC(=O)C3(NC(=O)CC(F)(F)F)CC3)cc2)no1 [Example 81, 1-(3,3,3-Trifluoro-propionylamino)-cyclopropanecarboxylic acid 4-[2-(5-methyl-[1,2,4]oxadiazol-3-yl)-indol-1-yl]-benzylamide] | < 0.02 µM | < 0.02 µM
8 | Cc1nc(-c2cc3ccccc3n2-c2ccc(CNC(=O)C3(NC(=O)c4cncc(C(F)(F)F)c4)CC3)cc2)no1 [Example 82, N-(1-{4-[2-(5-Methyl-[1,2,4]oxadiazol-3-yl)-indol-1-yl]-benzylcarbamoyl}-cyclopropyl)-5-trifluoromethyl-nicotinamide] | < 0.02 µM | < 0.02 µM
9 | Cc1noc(-c2cc3ccccc3n2-c2ccc(CNC(=O)C3(NC(=O)c4cncc(C(F)(F)F)c4)CC3)cc2)n1 [Example 83, N-(1-{4-[2-(3-Methyl-[1,2,4]oxadiazol-5-yl)-indol-1-yl]-benzylcarbamoyl}-cyclopropyl)-5-trifluoromethyl-nicotinamide] | < 0.02 µM | < 0.02 µM
10 | N#Cc1cc2ccccc2n1-c1ccc(CNC(=O)C2(NC(=O)c3cncc(C(F)(F)F)c3)CC2)cc1 [Example 84, N-{1-[4-(2-Cyano-indol-1-yl)-benzylcarbamoyl]-cyclopropyl}-5-trifluoromethyl-nicotinamide] | < 0.02 µM | < 0.02 µM
11 | Cc1nc(-c2c(Cl)c3cc(F)ccc3n2-c2ccc(CNC(=O)C3(NC(=O)c4cccnc4Cl)CC3)cc2)no1 [Example 85, 2-Chloro-N-(1-{4-[3-chloro-5-fluoro-2-(5-methyl-[1,2,4]oxadiazol-3-yl)-indol-1-yl]-benzylcarbamoyl}-cyclopropyl)-nicotinamide] | < 0.02 µM | < 0.02 µM
12 | Cc1nc(-c2c(Cl)c3cc(F)ccc3n2-c2ccc(CNC(=O)C3(NC(=O)c4cccc(F)c4)CC3)cc2)no1 [Example 86, N-(1-{4-[3-Chloro-5-fluoro-2-(5-methyl-[1,2,4]oxadiazol-3-yl)-indol-1-yl]-benzylcarbamoyl}-cyclopropyl)-3-fluoro-benzamide] | < 0.02 µM | < 0.02 µM
13 | Cc1cnc(C(=O)NC2(C(=O)NCc3ccc(-n4c(-c5noc(C)n5)c(Cl)c5cc(F)ccc54)cc3)CC2)cn1 [Example 87, 5-Methyl-pyrazine-2-carboxylic acid (1-{4-[3-chloro-5-fluoro-2-(5-methyl-[1,2,4]oxadiazol-3-yl)-indol-1-yl]-benzylcarbamoyl}-cyclopropyl)-amide] | < 0.02 µM | < 0.02 µM
14 | Cc1cc(C(=O)NC2(C(=O)NCc3ccc(-n4c(-c5noc(C)n5)c(Cl)c5cc(F)ccc54)cc3)CC2)no1 [Example 88, 5-Methyl-isoxazole-3-carboxylic acid (1-{4-[3-chloro-5-fluoro-2-(5-methyl-[1,2,4]oxadiazol-3-yl)-indol-1-yl]-benzylcarbamoyl}-cyclopropyl)-amide] | < 0.02 µM | < 0.02 µM
15 | Cc1nc(-c2c(Cl)c3cc(F)ccc3n2-c2ccc(CNC(=O)C3(NC(=O)c4ccnc(F)c4)CC3)cc2)no1 [Example 89, N-(1-{4-[3-Chloro-5-fluoro-2-(5-methyl-[1,2,4]oxadiazol-3-yl)-indol-1-yl]-benzylcarbamoyl}-cyclopropyl)-2-fluoro-isonicotinamide] | < 0.02 µM | < 0.02 µM
16 | Cc1nc(-c2c(Cl)c3cc(F)ccc3n2-c2ccc(CNC(=O)C3(NC(=O)c4cc(C5CC5)on4)CC3)cc2)no1 [Example 90, 5-Cyclopropyl-isoxazole-3-carboxylic acid (1-{4-[3-chloro-5-fluoro-2-(5-methyl-[1,2,4]oxadiazol-3-yl)-indol-1-yl]-benzylcarbamoyl}-cyclopropyl)-amide] | < 0.02 µM | < 0.02 µM
17 | Cc1nc(-c2c(Cl)c3cc(F)ccc3n2-c2ccc(CNC(=O)C3(NC(=O)c4cncc(C(F)(F)F)c4)CC3)cc2)no1 [Example 91, N-(1-{4-[3-Chloro-5-fluoro-2-(5-methyl-[1,2,4]oxadiazol-3-yl)-indol-1-yl]-benzylcarbamoyl}-cyclopropyl)-5-trifluoromethyl-nicotinamide] | < 0.02 µM | < 0.02 µM
18 | Cc1nc(-c2c(Cl)c3ccccc3n2-c2ccc(CNC(=O)C3(NC(=O)c4cccc(C(F)(F)F)c4F)CC3)cc2)no1 [Example 92, N-(1-{4-[3-Chloro-2-(5-methyl-[1,2,4]oxadiazol-3-yl)-indol-1-yl]-benzylcarbamoyl}-cyclopropyl)-2-fluoro-3-trifluoromethyl-benzamide] | < 0.02 µM | < 0.02 µM
19 | Cc1nc(-c2c(Cl)c3ccccc3n2-c2ccc(CNC(=O)C3(NC(=O)c4ccc(C(F)(F)F)c(F)c4)CC3)cc2)no1 [Example 93, N-(1-{4-[3-Chloro-2-(5-methyl-[1,2,4]oxadiazol-3-yl)-indol-1-yl]-benzylcarbamoyl}-cyclopropyl)-3-fluoro-4-trifluoromethyl-benzamide] | 0.02 to 0.1 µM | 0.02 to 0.1 µM
20 | Cc1nc(-c2c(Cl)c3ccccc3n2-c2ccc(CNC(=O)C3(NC(=O)c4cc(F)cc(C(F)(F)F)c4)CC3)cc2)no1 [Example 94, N-(1-{4-[3-Chloro-2-(5-methyl-[1,2,4]oxadiazol-3-yl)-indol-1-yl]-benzylcarbamoyl}-cyclopropyl)-3-fluoro-5-trifluoromethyl-benzamide] | < 0.02 µM | < 0.02 µM
21 | Cc1nc(-c2c(Cl)c3ccccc3n2-c2ccc(CNC(=O)C3(NC(=O)c4cccnc4F)CC3)cc2)no1 [Example 95, N-(1-{4-[3-Chloro-2-(5-methyl-[1,2,4]oxadiazol-3-yl)-indol-1-yl]-benzylcarbamoyl}-cyclopropyl)-2-fluoro-nicotinamide] | < 0.02 µM | < 0.02 µM
22 | Cc1nc(-c2c(Cl)c3ccccc3n2-c2ccc(CNC(=O)C3(NC(=O)c4cc(C(F)(F)F)ccc4F)CC3)cc2)no1 [Example 96, N-(1-{4-[3-Chloro-2-(5-methyl-[1,2,4]oxadiazol-3-yl)-indol-1-yl]-benzylcarbamoyl}-cyclopropyl)-2-fluoro-5-trifluoromethyl-benzamide] | < 0.02 µM | < 0.02 µM
23 | Cc1nc(-c2c(Cl)c3ccccc3n2-c2ccc(CNC(=O)C3(NC(=O)c4ccncc4F)CC3)cc2)no1 [Example 97, N-(1-{4-[3-Chloro-2-(5-methyl-[1,2,4]oxadiazol-3-yl)-indol-1-yl]-benzylcarbamoyl}-cyclopropyl)-3-fluoro-isonicotinamide] | 0.02 to 0.1 µM | < 0.02 µM
